test system: bracket-induced plaque formation (saliva-derived plaques on HA discs with brackets); assay: in vitro bracket-induced biofilm model system, crystal violet assay; assay type: cell-based; details: in vitro grown plaques from pooled human saliva, FIG. 5B/5C
Text: These discs were then fitted into 12-well tissue culture plates for the growth of saliva-derived plaques. One unique feature of this system is use of a new culture medium developed by this laboratory (Shi-medium, Tian Y 2010) which allows the biofilm grown in vitro to be very similar to in vivo human plaque.
A mixed pool of human saliva samples was collected from 10 volunteers to develop in vitro grown plaques on the model system developed above. Amino acids and sugar monomers and analogs were selected mostly from the list of FDA Generally Recognized As Safe (GRAS) compounds (http://www.fda.gov/Food/Ingredients PackagingLabeling/GRAS/SCOGS/ default.htm). The anti-biofilm inhibitory function of these chemicals was assayed with a crystal violet assay (Sharma A 2005), as illustrated in FIG. 5A. The compounds with more than 10× inhibitory effects were further investigated.

| Compound | inhibitory effects against bracket-induced plaque formation |
| --- | --- |
| C[C@@H](N)C(=O)O [D-Ala, D-alanine] | strong inhibitory effects |
| NCCCC[C@@H](N)C(=O)O [D-Lys, D-lysine] | strong inhibitory effects |
| C[C@H](O)[C@@H](N)C(=O)O [D-Thr, D-threonine] | strong inhibitory effects |
| N=C(N)NCCC[C@H](N)C(=O)O [L-Arg, L-arginine] | strong inhibitory effects |
| NCCCC[C@H](N)C(=O)O [L-Lys, L-lysine] | strong inhibitory effects |
| CC(=O)N[C@H]1C(O)O[C@H](CO)[C@@H](O)[C@@H]1O (stereo partly drawn) [N-acyl-Glucosamine, N-acetylglucosamine] | strong inhibitory effects |

Reference: US20190110971A1, “COMPOSITIONS FOR MANAGING PLAQUE FORMATION” (THE REGENTS OF THE UNIVERSITY OF CALIFORNIA, priority 2016, published 2019)
